Measured values as given in US11548884B2, “Cyclic amidine compounds for the treatment of autoimmune disease” (Hoffmann-La Roche Inc., priority 2018, dated 2023).

Target: T1, human TLR7 (Homo sapiens, UniProt Q9NYK1)
T1 sequence (Q9NYK1 27-1049): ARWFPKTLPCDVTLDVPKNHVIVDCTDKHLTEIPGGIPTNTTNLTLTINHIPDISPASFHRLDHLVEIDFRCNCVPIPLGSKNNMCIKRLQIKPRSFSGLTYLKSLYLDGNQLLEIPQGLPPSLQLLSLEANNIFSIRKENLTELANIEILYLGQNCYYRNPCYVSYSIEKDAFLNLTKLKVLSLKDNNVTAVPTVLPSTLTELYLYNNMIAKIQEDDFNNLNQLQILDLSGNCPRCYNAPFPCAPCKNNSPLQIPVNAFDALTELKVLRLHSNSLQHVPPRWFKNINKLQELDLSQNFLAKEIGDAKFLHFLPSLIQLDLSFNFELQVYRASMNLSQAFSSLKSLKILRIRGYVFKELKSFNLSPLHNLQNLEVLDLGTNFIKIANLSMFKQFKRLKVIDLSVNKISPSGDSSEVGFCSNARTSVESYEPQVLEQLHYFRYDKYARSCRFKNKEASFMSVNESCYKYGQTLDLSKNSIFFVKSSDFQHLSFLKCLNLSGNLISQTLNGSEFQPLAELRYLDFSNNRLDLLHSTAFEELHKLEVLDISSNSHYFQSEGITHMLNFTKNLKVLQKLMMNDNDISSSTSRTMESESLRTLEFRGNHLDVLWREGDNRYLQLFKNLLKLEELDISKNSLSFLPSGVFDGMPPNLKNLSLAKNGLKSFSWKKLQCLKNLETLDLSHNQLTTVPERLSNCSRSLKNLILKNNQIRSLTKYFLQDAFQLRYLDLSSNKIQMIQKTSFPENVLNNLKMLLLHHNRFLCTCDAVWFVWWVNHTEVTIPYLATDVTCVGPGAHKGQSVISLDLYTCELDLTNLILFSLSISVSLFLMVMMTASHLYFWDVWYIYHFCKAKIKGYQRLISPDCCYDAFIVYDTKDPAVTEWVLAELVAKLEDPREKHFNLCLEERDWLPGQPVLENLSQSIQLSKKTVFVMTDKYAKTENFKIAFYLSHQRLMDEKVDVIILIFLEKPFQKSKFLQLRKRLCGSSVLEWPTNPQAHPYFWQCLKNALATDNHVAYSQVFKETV
Assay: HEK293-Blue-hTLR-7 cells assay (SEAP reporter, R848 stimulation)
Format: cell-based
Conditions: HEK293-Blue-hTLR7 cells, R848 ligand, 20 h incubation
Method: The following tests were carried out in order to determine the activity of the compounds of formula (I) in HEK293-Blue-hTLR-7/8/9 cells assay.
HEK293-Blue-hTLR-7 Cells Assay:
A stable HEK293-Blue-hTLR-7 cell line was purchased from InvivoGen (Cat. #: hkb-htlr7, San Diego, Calif., USA). These cells were originally designed for studying the stimulation of human TLR7 by monitoring the activation of NF-κB. A SEAP (secreted embryonic alkaline phosphatase) reporter gene was placed under the control of the IFN-β minimal promoter fused to five NF-κB and AP-1-binding sites. The SEAP was induced by activating NF-κB and AP-1 via stimulating HEK-Blue hTLR7 cells with TLR7 ligands. Therefore the reporter expression was declined by TLR7 antagonist under the stimulation of a ligand, such as R848 (Resiquimod), for incubation of 20 h. The cell culture supernatant SEAP reporter activity was determined using QUANTI-Blue™ kit (Cat. #: rep-qb1, Invivogen, San Diego, Calif., USA) at a wavelength of 640 nm, a detection medium that turns purple or blue in the presence of alkaline phosphatase.
HEK293-Blue-hTLR7 cells were incubated at a density of 250,000˜450,000 cells/mL in a volume of 170 μL in a 96-well plate in Dulbecco's Modified Eagle's medium (DMEM) containing 4.5 g/L glucose, 50 U/mL penicillin, […], […], 2 mM L-glutamine, 10% (v/v) heat-inactivated fetal bovine serum with addition of 20 μL test compound in a serial dilution in the presence of final DMSO at 1% and 10 μL of 20 uM R848 in above DMEM, perform incubation under 37° C. in a CO2 incubator for 20 h. Then 20 μL of the supernatant from each well was incubated with 180 μL Quanti-blue substrate solution at 37° C. for 2 h and the absorbance was read at 620-655 nm using a spectrophotometer. The signalling pathway that TLR7 activation leads to downstream NF-κB activation has been widely accepted, and therefore similar reporter assay was modified for evaluating TLR7 antagonist.

Q: How did the IC50 turn out when `C[C@@H]1CN(c2ccc(C#N)c3ncccc23)C[C@H](C2=Nc3cccc(N4CCNCC4)c3CN2)O1` [Example 6, 5-[(2R,6R)-2-methyl-6-(5-piperazin-1-yl-3,4-dihydroquinazolin-2-yl)morpholin-4-yl]quinoline-8-carbonitrile] was run?
A: The IC50 was 40 nM.

Q: How did the IC50 turn out when `C[C@@H]1CN(c2ccc(C#N)c3ncccc23)C[C@H](C2=Nc3ccc(N4CCNCC4)cc3CN2)O1` [Example 7, 5-[(2R,6R)-2-methyl-6-(6-piperazin-1-yl-3,4-dihydroquinazolin-2-yl)morpholin-4-yl]quinoline-8-carbonitrile] was run?
A: Its IC50 is 12 nM.

Q: With `C[C@@H]1CN(c2ccc(C#N)c3ncccc23)C[C@H](C2=Nc3cc(N4CCNCC4)ccc3CN2)O1` [Example 8, 5-[(2R,6R)-2-methyl-6-(7-piperazin-1-yl-3,4-dihydroquinazolin-2-yl)morpholin-4-yl]quinoline-8-carbonitrile] as the molecule, how does the IC50 read?
A: Its IC50 is 18 nM.

Q: Which IC50 does the source give for `C[C@@H]1CN(c2ccc(C#N)c3ncccc23)C[C@H](C2=Nc3c(cccc3N3CCNCC3)CN2)O1` [Example 9, 5-[(2R,6R)-2-methyl-6-(8-piperazin-1-yl-3,4-dihydroquinazolin-2-yl)morpholin-4-yl]quinoline-8-carbonitrile] here?
A: The IC50 was 36 nM.

Q: For `C[C@@H]1CN(c2ccc(C#N)c3ncccc23)C[C@H](C2=Nc3cccc(N4CCN(C)CC4)c3CN2)O1` [Example 12, 5-[(2R,6R)-2-methyl-6-[5-(4-methylpiperazin-1-yl)-3,4-dihydroquinazolin-2-yl]morpholin-4-yl]quinoline-8-carbonitrile], which IC50 is on record?
A: The IC50 was 83 nM.

Q: Which IC50 does the source give for `C[C@@H]1CN(c2ccc(C#N)c3ncccc23)C[C@H](C2=Nc3cccc(N4CCC5(CCNC5)C4)c3CN2)O1` (stereo partly drawn) [Example 13, 5-[(2R,6R)-2-[5-(2,7-diazaspiro[4.4]nonan-2-yl)-3,4-dihydroquinazolin-2-yl]-6-methyl-morpholin-4-yl]quinoline-8-carbonitrile] here?
A: The IC50 was 294 nM.

Q: How did the IC50 turn out when `C[C@@H]1CN(c2ccc(C#N)c3ncccc23)C[C@H](C2=Nc3cccc(C4=CCNCC4)c3CCN2)O1` [Example 16, 5-[(2R,6R)-2-methyl-6-[6-(1,2,3,6-tetrahydropyridin-4-yl)-4,5-dihydro-3H-1,3-benzodiazepin-2-yl]morpholin-4-yl]quinoline-8-carbonitrile] was run?
A: The IC50 was 251 nM.

Q: For `C[C@@H]1CN(c2ccc(C#N)c3ncccc23)C[C@H](C2=Nc3ccc(N4CCNCC4)cc3CCN2)O1` [Example 17, 5-[(2R,6R)-2-methyl-6-(7-piperazin-1-yl-4,5-dihydro-3H-1,3-benzodiazepin-2-yl)morpholin-4-yl]quinoline-8-carbonitrile], which IC50 is on record?
A: Its IC50 is 362 nM.

Q: With `C[C@@H]1CN(c2ccc(C#N)c3ncccc23)C[C@H](C2=Nc3cccc(C4CCNCC4)c3CN2)O1` [Example 18, 5-[(2R,6R)-2-methyl-6-[5-(4-piperidyl)-3,4-dihydroquinazolin-2-yl]morpholin-4-yl]quinoline-8-carbonitrile] as the molecule, how does the IC50 read?
A: Its IC50 is 130 nM.
